Assay results taken from ChEMBL document CHEMBL5338784, “Non-steroidal CYP17A1 Inhibitors: Discovery and Assessment” (J Med Chem, 2023).
Each block holds one molecule with its values, some of them ahead of it.

Key:
[1] = molecular target: T1, Steroid 17-alpha-hydroxylase/17,20 lyase (Homo sapiens, UniProt P05093); assay: Inhibition of human testicular microsome CYP17; assay type: ADME, microsomes, Testis
T1 sequence (P05093 whole entry): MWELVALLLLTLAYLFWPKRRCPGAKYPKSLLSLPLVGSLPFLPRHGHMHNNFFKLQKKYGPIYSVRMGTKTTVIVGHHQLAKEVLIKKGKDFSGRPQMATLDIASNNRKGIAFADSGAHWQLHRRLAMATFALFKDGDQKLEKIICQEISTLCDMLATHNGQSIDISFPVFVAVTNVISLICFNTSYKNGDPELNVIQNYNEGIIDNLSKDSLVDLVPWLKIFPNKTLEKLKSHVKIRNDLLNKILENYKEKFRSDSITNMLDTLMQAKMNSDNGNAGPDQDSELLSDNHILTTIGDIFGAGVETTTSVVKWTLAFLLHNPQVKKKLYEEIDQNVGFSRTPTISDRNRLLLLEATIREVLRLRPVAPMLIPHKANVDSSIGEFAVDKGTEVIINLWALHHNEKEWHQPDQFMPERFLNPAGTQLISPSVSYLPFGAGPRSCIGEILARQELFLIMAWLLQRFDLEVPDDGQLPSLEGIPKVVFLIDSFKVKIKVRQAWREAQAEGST

[2] = molecular target: T2, Steroid 17-alpha-hydroxylase/17,20 lyase (Rattus norvegicus, UniProt P11715); assay: Inhibition of rat testicular CYP17; assay type: ADME, tissue-based, Testis
T2 sequence (P11715 whole entry): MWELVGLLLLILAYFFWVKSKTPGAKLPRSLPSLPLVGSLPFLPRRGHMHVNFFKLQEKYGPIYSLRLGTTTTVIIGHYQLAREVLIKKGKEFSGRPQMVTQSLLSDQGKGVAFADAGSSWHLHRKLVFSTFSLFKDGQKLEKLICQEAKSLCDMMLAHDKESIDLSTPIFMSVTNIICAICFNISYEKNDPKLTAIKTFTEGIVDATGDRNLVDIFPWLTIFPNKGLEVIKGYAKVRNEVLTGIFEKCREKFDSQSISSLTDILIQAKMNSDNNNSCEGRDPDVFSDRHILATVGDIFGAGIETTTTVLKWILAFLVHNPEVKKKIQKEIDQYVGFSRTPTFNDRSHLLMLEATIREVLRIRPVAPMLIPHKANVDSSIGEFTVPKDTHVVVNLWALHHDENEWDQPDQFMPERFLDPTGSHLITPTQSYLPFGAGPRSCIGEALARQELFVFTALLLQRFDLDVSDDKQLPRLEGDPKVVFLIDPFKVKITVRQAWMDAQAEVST

[3] = molecular target: T1, Steroid 17-alpha-hydroxylase/17,20 lyase; assay: Inhibition of human testicular CYP17; assay type: ADME, tissue-based, Testis
Serum = assay: In vivo inhibition of testosterone in Sprague-Dawley rat assessed as serum testosterone level at 25 mg/kg, po measured after 5 hrs by radioimmuno assay relative to control; assay type: functional
[4] = molecular target: T1, Steroid 17-alpha-hydroxylase/17,20 lyase; assay: Inhibiton of human CYP17A1 C17, 20 lyase activity expressed in Escherichia coli using [1,2-3H]-17alpha-hydroxyprogesterone as substrate incubated for 15 mins in presence of NADPH generating system; assay type: ADME
Cytochrome P450 3A4 = Cytochrome P450 3A4 (Homo sapiens, UniProt P08684); assay: Inhibition of human recombinant CYP3A4; assay type: ADME
Sequence of Cytochrome P450 3A4 (P08684 whole entry): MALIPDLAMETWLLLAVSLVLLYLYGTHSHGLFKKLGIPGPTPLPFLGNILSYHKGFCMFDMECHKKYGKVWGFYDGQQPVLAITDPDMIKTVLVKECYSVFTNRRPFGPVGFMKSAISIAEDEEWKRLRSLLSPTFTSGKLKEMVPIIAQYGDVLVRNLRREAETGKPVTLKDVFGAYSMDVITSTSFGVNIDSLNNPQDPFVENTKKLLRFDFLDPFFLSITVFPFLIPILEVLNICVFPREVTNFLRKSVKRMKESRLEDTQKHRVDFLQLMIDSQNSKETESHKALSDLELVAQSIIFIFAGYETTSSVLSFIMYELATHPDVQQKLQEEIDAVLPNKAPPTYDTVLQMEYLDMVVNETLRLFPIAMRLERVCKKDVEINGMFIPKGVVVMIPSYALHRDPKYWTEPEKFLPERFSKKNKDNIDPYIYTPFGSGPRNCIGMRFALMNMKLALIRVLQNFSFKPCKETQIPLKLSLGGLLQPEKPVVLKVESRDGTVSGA

Cytochrome P450 2D6 = Cytochrome P450 2D6 (Homo sapiens, UniProt P10635); assay: Inhibition of human recombinant CYP2D6; assay type: ADME
Sequence of Cytochrome P450 2D6 (P10635 whole entry): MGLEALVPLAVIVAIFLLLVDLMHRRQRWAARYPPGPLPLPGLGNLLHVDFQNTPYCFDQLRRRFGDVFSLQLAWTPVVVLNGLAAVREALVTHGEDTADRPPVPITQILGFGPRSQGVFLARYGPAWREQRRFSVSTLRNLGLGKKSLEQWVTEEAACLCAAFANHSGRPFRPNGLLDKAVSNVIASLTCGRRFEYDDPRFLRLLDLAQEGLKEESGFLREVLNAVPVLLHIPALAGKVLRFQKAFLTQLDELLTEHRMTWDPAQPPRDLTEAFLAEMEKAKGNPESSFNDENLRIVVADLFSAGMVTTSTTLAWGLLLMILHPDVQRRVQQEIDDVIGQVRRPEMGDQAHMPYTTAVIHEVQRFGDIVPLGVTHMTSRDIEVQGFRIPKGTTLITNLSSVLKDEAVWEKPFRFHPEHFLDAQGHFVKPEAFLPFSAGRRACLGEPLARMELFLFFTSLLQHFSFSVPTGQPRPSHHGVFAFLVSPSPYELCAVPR

[5] = molecular target: T2, Steroid 17-alpha-hydroxylase/17,20 lyase; assay: Binding affinity to Sprague-Dawley rat testicular microsome CYP17A1 assessed as inhibition constant; assay type: ADME, microsomes, Testis
[6] = molecular target: T2, Steroid 17-alpha-hydroxylase/17,20 lyase; assay: Inhibition of Spague-Dawley rat testicular microsome CYP17 using progesterone as substrate preincubated for 5 mins followed by enzyme addition measured after 20 mins in presence of NADPH; assay type: ADME, microsomes, Testis
[7] = molecular target: T1, Steroid 17-alpha-hydroxylase/17,20 lyase; assay: Inhibition of human testicular microsomal C17, 20 lyase activity using 17alpha-[1,2,6,7-3H] hydroxyprogesterone; assay type: microsomes, Testis, Microsome
[8] = molecular target: T2, Steroid 17-alpha-hydroxylase/17,20 lyase; assay: Inhibiton of Sprague-Dawley rat testicular microsomal suspension CYP17A1 C17, 20 lyase activity using [1,2-3H]-17alpha-hydroxyprogesterone as substrate incubated for 15 mins in presence of NADPH generating system; assay type: ADME, microsomes, Testis, Microsome
[9] = molecular target: T2, Steroid 17-alpha-hydroxylase/17,20 lyase; assay: Inhibition of rat CYP17; assay type: ADME
[10] = molecular target: T1, Steroid 17-alpha-hydroxylase/17,20 lyase; assay: Inhibition of human recombinant CYP17A1 C17,20-lyase activity expressed in Escherichia coli using [1,2-3H]-17alpha-hydroxypregnenolone as substrate incubated for 15 mins; assay type: ADME
[11] = molecular target: T2, Steroid 17-alpha-hydroxylase/17,20 lyase; assay: Inhibiton of Sprague-Dawley rat testicular microsomal suspension CYP17A1 C17, 20 lyase activity using radiolabelled 17alpha-hydroxyprogesterone as substrate preincubated for 5 mins followed by enzyme addition incubated for 30 mins in presence of NADPH generating system; assay type: ADME, microsomes, Testis, Microsome
[12] = molecular target: T2, Steroid 17-alpha-hydroxylase/17,20 lyase; assay: Inhibiton of Sprague-Dawley rat testicular microsomal suspension CYP17A1 17-alpha hydroxylase activity using radiolabelled progesterone as substrate preincubated for 5 mins followed by enzyme addition incubated for 15 mins in presence of NADPH generating system; assay type: ADME, microsomes, Testis, Microsome
[13] = molecular target: T1, Steroid 17-alpha-hydroxylase/17,20 lyase; assay: Inhibition of human testis C17, 20 lyase activity using 17alpha-[1,2-3H] hydroxyprogesterone incubated for 30 mins in presence of NADPH generating system; assay type: tissue-based
[14] = molecular target: T1, Steroid 17-alpha-hydroxylase/17,20 lyase; assay: Inhibition of human CYP17 C17,20-lyase activity; assay type: ADME

Structure (SMILES): CC(c1ccc(-c2ccc(F)cc2)cc1)n1ccnc1 (stereo not given)
IC50 [2]: 540 nM
IC50 [3]: 240 nM

Structure (SMILES): Cc1c(/C=C/[C@H](C)c2c[nH]cn2)sc2ccc(F)cc12
Ct (Serum): 2%
IC50 [4]: 21 nM

Structure (SMILES): Brc1cc(Br)c2oc(Cn3ccnc3)cc2c1
IC50 [7]: 185 nM

Structure (SMILES): COc1ccc2c(c1)CCC(Cc1c[nH]cn1)C2 (stereo not given)
IC50 [9]: 1000 nM

Structure (SMILES): COc1ccc(-c2ccc([C@](O)(c3c[nH]cn3)C(C)C)cc2)cc1OC
IC50 [10]: 11 nM

Structure (SMILES): Brc1ccc(CCCCCn2ccnc2)cc1
IC50 [11]: 58 nM
IC50 [12]: 500 nM

Structure (SMILES): C(=C/c1cccc(Cn2ccnc2)c1)/c1ccccc1
Ct (Serum): 135%
IC50 [8]: 24 nM

Structure (SMILES): O=c1c(O)cc([C@H]2Oc3cc(O)cc(O)c3C[C@H]2O)cc2c([C@H]3Oc4cc(O)cc(O)c4C[C@H]3O)cc(O)c(O)c12 [THEAFLAVIN]
IC50 [14]: 25000 nM

Further lines, results first:

IC50 [1]: 1000 nM
Structure (SMILES): c1ccc(-c2ccc(Cn3ccnc3)cc2)cc1

IC50 (Cytochrome P450 3A4): > 10000 nM
IC50 (Cytochrome P450 2D6): > 10000 nM
Structure (SMILES): c1cncc(Nc2ccc(-n3cnc4ccccc43)cc2)c1

Ki [5]: 40 nM
Structure (SMILES): CC1=C(c2cccnc2)Cc2cc(Cl)ccc21

IC50 [6]: 13000 nM
Structure (SMILES): COc1cccc2c1CCC(c1ccncc1)C2=O (stereo not given)

IC50 [8]: 230 nM
Structure (SMILES): C(=C\c1cccc(-n2ccnc2)c1)/c1ccccc1

Ki [5]: 300 nM
Structure (SMILES): O=C1c2cc(Cl)ccc2CCC1c1cccnc1 (stereo not given)

IC50 [13]: 4 nM
Structure (SMILES): Clc1ccccc1C(c1cc2cc(Br)ccc2o1)n1ccnc1 (stereo not given)
